Here are results for 25 molecules from ChEMBL document CHEMBL6182847, “Design, synthesis, and biological evaluation of novel aminopyrimidine derivatives as EGFR inhibitors” (Bioorg Med Chem Lett, 2025).

In assay [1] the test system is Epidermal growth factor receptor (Homo sapiens), P00533 [L858R,T790M,C797S]. To be noted: dose 500.0 nM.
Description: Inhibition of EGFR L858R/T790M/C797S mutant (unknown origin) at 500 nM relative to control
The target of assay [2] is Epidermal growth factor receptor (Homo sapiens, UniProt P00533, C797S/L858R/T790M). As to the kind of experiment: Inhibition of EGFR L858R/T790M/C797S mutant (unknown origin).
Assay [3] concerns the target Epidermal growth factor receptor (Homo sapiens, UniProt P00533). Put plainly: Inhibition of wild-type EGFR (unknown origin).
Assay [4] can be described thus: cells. To be noted: Mus musculus, Ba/F3 EGFR-T790M/C797S/L858R.
Description: Antiproliferative activity against mouse Ba/F3 EGFR-T790M/C797S/L858R cells
The nature of assay [5]: Potency index, ratio of Brigatinib IC50 to test compound IC50 for antiproliferative activity against mouse Ba/F3 EGFR-T790M/C797S/L858R cells. It counts as functional.

SMILES strings stand for the structures. pIC50: −log10 of the molar value.

Epidermal growth factor receptor (Homo sapiens, UniProt P00533, C797S/L858R/T790M), sequence (P00533 25-1210 T790M/C797S/L858R limits assumed): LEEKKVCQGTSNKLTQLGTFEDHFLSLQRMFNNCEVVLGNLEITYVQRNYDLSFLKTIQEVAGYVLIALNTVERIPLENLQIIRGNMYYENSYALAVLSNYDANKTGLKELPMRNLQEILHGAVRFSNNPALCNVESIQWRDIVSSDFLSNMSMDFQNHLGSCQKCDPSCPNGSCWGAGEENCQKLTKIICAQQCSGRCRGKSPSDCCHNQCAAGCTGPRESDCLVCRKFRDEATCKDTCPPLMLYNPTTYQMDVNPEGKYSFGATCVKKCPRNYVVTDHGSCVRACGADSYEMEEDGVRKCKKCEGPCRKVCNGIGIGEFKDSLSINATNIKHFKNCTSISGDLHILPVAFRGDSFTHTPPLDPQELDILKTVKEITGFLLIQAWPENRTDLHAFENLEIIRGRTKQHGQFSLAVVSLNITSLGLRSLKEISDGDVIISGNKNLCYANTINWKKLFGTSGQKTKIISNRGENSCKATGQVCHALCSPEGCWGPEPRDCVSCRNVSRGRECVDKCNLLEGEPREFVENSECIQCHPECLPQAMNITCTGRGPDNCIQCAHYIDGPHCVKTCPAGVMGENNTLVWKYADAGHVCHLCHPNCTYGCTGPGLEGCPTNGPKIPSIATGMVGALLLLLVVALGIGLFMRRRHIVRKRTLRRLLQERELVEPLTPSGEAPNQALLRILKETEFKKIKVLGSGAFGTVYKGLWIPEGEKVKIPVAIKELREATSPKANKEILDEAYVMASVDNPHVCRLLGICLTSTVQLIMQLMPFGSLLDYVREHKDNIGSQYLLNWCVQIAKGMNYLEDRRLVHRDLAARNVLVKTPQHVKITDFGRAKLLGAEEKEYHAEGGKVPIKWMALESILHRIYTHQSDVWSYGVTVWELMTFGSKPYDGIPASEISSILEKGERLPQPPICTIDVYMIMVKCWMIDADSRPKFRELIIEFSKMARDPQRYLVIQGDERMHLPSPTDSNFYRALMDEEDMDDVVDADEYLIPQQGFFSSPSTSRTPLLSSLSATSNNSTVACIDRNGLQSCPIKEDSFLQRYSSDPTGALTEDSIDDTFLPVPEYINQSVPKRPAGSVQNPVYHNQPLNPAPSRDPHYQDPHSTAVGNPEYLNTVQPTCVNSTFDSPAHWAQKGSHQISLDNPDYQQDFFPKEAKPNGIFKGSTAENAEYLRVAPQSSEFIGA
Epidermal growth factor receptor (Homo sapiens), P00533 [L858R,T790M,C797S], sequence (P00533 whole entry T790M/C797S/L858R): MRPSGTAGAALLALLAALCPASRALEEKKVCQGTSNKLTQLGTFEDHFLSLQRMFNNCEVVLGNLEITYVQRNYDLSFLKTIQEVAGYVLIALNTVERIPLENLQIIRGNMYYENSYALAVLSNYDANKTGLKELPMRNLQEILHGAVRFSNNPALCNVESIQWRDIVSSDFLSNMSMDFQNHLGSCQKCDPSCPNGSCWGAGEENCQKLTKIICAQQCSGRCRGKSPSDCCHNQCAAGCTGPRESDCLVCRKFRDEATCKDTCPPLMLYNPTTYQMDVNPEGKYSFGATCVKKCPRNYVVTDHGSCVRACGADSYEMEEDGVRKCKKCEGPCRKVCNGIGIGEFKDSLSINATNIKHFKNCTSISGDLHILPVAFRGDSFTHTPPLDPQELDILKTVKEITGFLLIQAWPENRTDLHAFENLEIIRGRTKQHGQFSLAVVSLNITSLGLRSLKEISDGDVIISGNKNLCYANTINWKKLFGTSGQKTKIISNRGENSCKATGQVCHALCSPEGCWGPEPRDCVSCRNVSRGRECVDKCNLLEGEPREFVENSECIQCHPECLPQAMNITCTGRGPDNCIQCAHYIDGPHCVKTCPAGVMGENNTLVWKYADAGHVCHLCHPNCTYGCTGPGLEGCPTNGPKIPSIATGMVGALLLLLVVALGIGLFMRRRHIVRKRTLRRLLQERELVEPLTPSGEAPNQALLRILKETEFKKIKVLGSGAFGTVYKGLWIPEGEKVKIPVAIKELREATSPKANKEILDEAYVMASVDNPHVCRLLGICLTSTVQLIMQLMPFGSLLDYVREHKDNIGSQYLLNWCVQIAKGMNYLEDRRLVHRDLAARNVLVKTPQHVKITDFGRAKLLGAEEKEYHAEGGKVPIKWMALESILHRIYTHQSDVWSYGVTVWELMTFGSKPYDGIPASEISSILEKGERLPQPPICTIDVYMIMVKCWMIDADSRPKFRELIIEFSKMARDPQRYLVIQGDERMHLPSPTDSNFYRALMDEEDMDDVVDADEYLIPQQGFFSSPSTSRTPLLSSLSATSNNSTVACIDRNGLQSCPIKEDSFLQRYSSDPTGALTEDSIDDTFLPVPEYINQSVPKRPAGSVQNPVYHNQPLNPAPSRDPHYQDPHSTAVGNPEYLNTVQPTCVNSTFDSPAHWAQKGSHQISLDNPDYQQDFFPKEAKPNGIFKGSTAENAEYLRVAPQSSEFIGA
Epidermal growth factor receptor (Homo sapiens, UniProt P00533), sequence (P00533 whole entry): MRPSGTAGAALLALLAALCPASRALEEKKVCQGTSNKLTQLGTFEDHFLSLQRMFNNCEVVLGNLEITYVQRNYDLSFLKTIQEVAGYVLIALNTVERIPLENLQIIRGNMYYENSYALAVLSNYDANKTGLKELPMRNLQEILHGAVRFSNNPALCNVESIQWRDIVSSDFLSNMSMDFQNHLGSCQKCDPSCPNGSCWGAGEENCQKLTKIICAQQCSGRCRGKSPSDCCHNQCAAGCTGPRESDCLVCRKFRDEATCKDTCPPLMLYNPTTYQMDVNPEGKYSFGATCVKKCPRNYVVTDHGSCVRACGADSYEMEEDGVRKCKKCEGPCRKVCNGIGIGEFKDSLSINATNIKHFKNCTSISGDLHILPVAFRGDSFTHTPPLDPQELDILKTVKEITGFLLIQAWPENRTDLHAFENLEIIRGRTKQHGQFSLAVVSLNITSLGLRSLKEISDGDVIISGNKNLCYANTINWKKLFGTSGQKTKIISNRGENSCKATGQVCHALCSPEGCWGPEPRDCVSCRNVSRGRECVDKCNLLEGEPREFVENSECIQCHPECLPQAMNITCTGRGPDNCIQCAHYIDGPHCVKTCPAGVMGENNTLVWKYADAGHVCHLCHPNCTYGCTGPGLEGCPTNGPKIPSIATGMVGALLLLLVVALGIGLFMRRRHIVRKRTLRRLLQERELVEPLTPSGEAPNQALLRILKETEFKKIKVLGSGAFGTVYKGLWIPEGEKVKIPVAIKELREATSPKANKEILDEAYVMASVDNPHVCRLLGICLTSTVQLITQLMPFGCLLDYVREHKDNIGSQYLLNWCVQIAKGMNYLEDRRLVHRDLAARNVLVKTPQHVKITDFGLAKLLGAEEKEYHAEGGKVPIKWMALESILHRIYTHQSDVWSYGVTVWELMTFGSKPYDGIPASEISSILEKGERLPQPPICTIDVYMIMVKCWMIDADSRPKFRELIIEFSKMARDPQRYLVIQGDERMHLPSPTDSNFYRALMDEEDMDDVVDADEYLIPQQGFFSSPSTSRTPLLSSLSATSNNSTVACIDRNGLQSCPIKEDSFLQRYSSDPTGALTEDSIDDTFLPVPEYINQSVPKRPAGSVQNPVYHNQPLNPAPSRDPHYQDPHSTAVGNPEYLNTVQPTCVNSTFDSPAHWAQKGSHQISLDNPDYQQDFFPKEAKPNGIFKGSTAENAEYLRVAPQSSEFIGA

Turning to `CCS(=O)(=O)Nc1ccccc1-c1ccn(-c2nc(Nc3cc(C)c(N4CCC(N5CCN(C)CC5)CC4)cc3OC)ncc2Br)n1`, the inhibition (in general, the relative decrease from the control value, in per cent) in assay [1] came to 71.4%.
Regarding `COc1cc(N2CCC(N3CCN(C)CC3)CC2)c(C)cc1Nc1nccc(-n2cc(NC(=O)C3CC3)cn2)n1`, the negative-log IC50 (pIC50) (as a rule, the IC50 on a negative log10 scale, so that one unit is a factor of ten) in assay [2] was 7.42; in assay [3], 6.47; in assay [4], 6.87. The molecule further showed an inhibition in assay [1] of 89.8%.
`C/C=C/C(=O)Nc1cnn(-c2ccnc(Nc3cc(C)c(N4CCC(N5CCN(C)CC5)CC4)cc3OC)n2)c1` had an inhibition in assay [1] of 81.9%.
In the case of `COc1cc(N2CCC(N3CCN(C)CC3)CC2)c(C)cc1Nc1nccc(-n2cc(NC(=O)C=C(C)C)cn2)n1`, the pIC50 in assay [2] is 7.27; in assay [3] it was 6.42; in assay [4] it was 6.67. In assay [1], this molecule displayed an inhibition of 87.2%.
For `COc1cc(N2CCC(N3CCN(C)CC3)CC2)c(C)cc1Nc1nccc(-n2cc(NS(=O)(=O)C3CC3)cn2)n1`, the pIC50 in assay [2] was 7.73; in assay [3], 6.80; in assay [4] it was 7.01. Further, the “Ratio IC50” value in assay [5] worked out at 5. Besides, the inhibition in assay [1] stood at 93.2%.
Regarding `C=CC(=O)Nc1ccccc1-c1ccn(-c2nc(Nc3cc(C)c(N4CCC(N5CCN(C)CC5)CC4)cc3OC)ncc2Br)n1`, the inhibition in assay [1] stood at 79.9%.
The molecule `CCC(=O)Nc1cnn(-c2ccnc(Nc3cc(C)c(N4CCC(N5CCN(C)CC5)CC4)cc3OC)n2)c1` registered an inhibition in assay [1] of 85.4%.
With `COc1cc(N2CCC(N3CCN(C)CC3)CC2)c(C)cc1Nc1nccc(-n2cc(NC(=O)C(C)C)cn2)n1`, in assay [1], the inhibition is 80.4%.
Still for that read-out and setting: the figure for `COc1cc(N2CCC(N3CCN(C)CC3)CC2)c(C)cc1Nc1nccc(-n2cc(NC(C)=O)cn2)n1` is 82.6%; for `C=CC(=O)Nc1cnn(-c2ccnc(Nc3cc(C)c(N4CCN(S(C)(=O)=O)CC4)cc3OC)n2)c1` it is 54.3%; for `C=C(C)C(=O)Nc1cnn(-c2ccnc(Nc3cc(C)c(N4CCC(N5CCN(C)CC5)CC4)cc3OC)n2)c1` it is 83.8%.
For `C=CC(=O)Nc1cnn(-c2ccnc(Nc3cc(C)c(N4CCC(N(C)C)CC4)cc3OC)n2)c1`, the inhibition in assay [1] turned out to be 61.1%.
The same measure, in the same setting: the figure for `C=CC(=O)Nc1cnn(-c2ccnc(Nc3cc(C)c(N4CCC(N5CCCC5)CC4)cc3OC)n2)c1` is 75.7%.
Molecule `COc1cc(N2CCC(N3CCN(C)CC3)CC2)ccc1Nc1ncc(Cl)c(Nc2ccccc2P(C)(C)=O)n1` [BRIGATINIB] showed a pIC50 in assay [4] of 6.27.
On to `C=CC(=O)Nc1cnn(-c2ccnc(Nc3cc(C)c(N4CCOCC4)cc3OC)n2)c1`, for which the inhibition in assay [1] was found to be 48.5%.
Same read-out and setting: the figure for `C=CC(=O)Nc1cnn(-c2ccnc(Nc3cc(C)c(N4CCN(C)CC4)cc3OC)n2)c1` is 47.3%.
Regarding `C=CC(=O)Nc1cnn(-c2ccnc(Nc3cc(C)c(N4CCC(N5CCN(C)CC5)CC4)cc3OC)n2)c1`, the pIC50 in assay [2] is 7.11; in assay [3], 6.31; in assay [4] it was 6.62. This molecule returned an inhibition in assay [1] of 80%.
In assay [1], `CCCS(=O)(=O)Nc1cnn(-c2ccnc(Nc3cc(C)c(N4CCC(N5CCN(C)CC5)CC4)cc3OC)n2)c1` had an inhibition of 89.1%.
In assay [1], `COc1cc(N2CCC(N3CCN(C)CC3)CC2)c(C)cc1Nc1nccc(-n2cc(NS(=O)(=O)C(C)C)cn2)n1` registered an inhibition of 90.2%.
Still for that read-out and setting: the figure for `CCCCS(=O)(=O)Nc1cnn(-c2ccnc(Nc3cc(C)c(N4CCC(N5CCN(C)CC5)CC4)cc3OC)n2)c1` is 90.2%; for `C=CC(=O)Nc1cnn(-c2ccnc(Nc3cc(C)c(N4CCN(C(C)=O)CC4)cc3OC)n2)c1` it is 48.8%.
Turning to `COc1cc(N2CCC(N3CCN(C)CC3)CC2)c(C)cc1Nc1ncc(Br)c(-n2ccc(-c3ccccc3NS(=O)(=O)C3CC3)n2)n1`, the figures for the pIC50 in assay [2], in assay [3] and in assay [4] were 7.03, under 5.30 and 6.47, respectively. The same molecule displayed an inhibition in assay [1] of 81.8%.
In assay [1], `C=CC(=O)Nc1cnn(-c2ccnc(Nc3cc(C)c(N4CCN(C(C)C)CC4)cc3OC)n2)c1` returned an inhibition of 46.1%.
As for `COc1cc(N2CCC(N3CCN(C)CC3)CC2)c(C)cc1Nc1nccc(-n2cc(NS(C)(=O)=O)cn2)n1`, in assay [1], the inhibition was found to be 88.1%.
For `CCS(=O)(=O)Nc1cnn(-c2ccnc(Nc3cc(C)c(N4CCC(N5CCN(C)CC5)CC4)cc3OC)n2)c1`, the inhibition in assay [1] amounted to 89%.
